We go through one compound from patent publication US20220142990A1, “EXTERNAL PREPARATION FOR TREATING A VASCULAR ANOMALY” (OSAKA UNIVERSITY, priority 2019, published 2022).

The data set in a line: Test Example 4: sirolimus in blood of the patients. The format is in vivo, human. To be noted: Patients A, B, C; 0.2% sirolimus gel applied to lesion twice a day for 12 weeks; not detected, measurement limit value. On the procedure: The gel containing 0.2 wt % of sirolimus produced in Production Example 3 (hereinafter referred to as 0.2% sirolimus gel) was applied to a lesion portion twice a day for 12 weeks. An approximate size of an application target lesion was measured to determine a single application amount. The application amount was set to about 125 mg of gel per 50 cm^2. In the sirolimus gel treatment period (12 weeks), no combined medicine was used, and no combination therapy was performed.
Sirolimus was not detected from the blood of any of the patients (measurement limit value: 1.0 ng/mL).

As to `CO[C@H]1C[C@@H]2CC[C@@H](C)[C@@](O)(O2)C(=O)C(=O)N2CCCC[C@H]2C(=O)O[C@H]([C@H](C)C[C@@H]2CC[C@@H](O)[C@H](OC)C2)CC(=O)[C@H](C)/C=C(\C)[C@@H](O)[C@@H](OC)C(=O)[C@H](C)C[C@H](C)/C=C/C=C/C=C/1C` [Sirolimus, sirolimus], the sirolimus in blood is < 1.0 ng/mL.
